The results in this text go back to US5700446A, “Synthesis of ferrocenyl phenyltropane analogs and their radio-transformation to technetium neuroprobes for mapping monoamine reuptake sites” (Neuro Imaging Technologies, LLC, priority 1996, dated 1997).

The target in assay [1] is T1, serotonin transporter (Rattus norvegicus, UniProt P31652).
T1 construct: rat brain corpus striatum (for the dopamine transporter) or frontoparietal cerebral cortex (for the serotonin and norepinephrine transporters); from tissue; host or cells: rat frontoparietal cerebral cortex, crude membrane fraction
T1 sequence (P31652 whole entry): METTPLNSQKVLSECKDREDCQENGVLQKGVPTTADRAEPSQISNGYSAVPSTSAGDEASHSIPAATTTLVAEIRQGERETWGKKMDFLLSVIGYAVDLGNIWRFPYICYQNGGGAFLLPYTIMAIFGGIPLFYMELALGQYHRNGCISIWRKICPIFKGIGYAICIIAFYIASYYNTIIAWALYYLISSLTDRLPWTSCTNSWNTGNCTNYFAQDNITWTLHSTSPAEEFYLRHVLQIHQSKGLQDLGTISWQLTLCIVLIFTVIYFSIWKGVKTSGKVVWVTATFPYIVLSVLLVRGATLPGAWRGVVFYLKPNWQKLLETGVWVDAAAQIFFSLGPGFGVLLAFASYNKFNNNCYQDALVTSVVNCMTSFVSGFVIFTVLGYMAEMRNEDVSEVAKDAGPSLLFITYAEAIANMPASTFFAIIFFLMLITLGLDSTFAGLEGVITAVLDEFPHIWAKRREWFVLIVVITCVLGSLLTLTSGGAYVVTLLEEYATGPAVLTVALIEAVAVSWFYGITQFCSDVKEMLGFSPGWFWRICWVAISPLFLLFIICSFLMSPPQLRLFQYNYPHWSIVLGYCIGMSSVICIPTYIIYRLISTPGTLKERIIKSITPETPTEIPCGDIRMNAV
The assay is described as follows: Radioreceptor binding assay, serotonin transporter ([3H]paroxetine), rat frontoparietal cerebral cortex membranes. The settings on record: [3H]paroxetine 0.2 nM, 60 min at 20° C., Tris buffer pH 7.4, rat frontoparietal cortex; ±SEM; read-out: Serotonin Transporter (5-HTT) (Ki).

For assay [2], the target named is T2, dopamine transporter (Rattus norvegicus, UniProt P23977).
T2 construct: crude membrane fraction of homogenates of rat brain corpus striatum (for the dopamine transporter); from tissue; host or cells: rat brain corpus striatum, crude membrane fraction
T2 sequence (P23977 whole entry): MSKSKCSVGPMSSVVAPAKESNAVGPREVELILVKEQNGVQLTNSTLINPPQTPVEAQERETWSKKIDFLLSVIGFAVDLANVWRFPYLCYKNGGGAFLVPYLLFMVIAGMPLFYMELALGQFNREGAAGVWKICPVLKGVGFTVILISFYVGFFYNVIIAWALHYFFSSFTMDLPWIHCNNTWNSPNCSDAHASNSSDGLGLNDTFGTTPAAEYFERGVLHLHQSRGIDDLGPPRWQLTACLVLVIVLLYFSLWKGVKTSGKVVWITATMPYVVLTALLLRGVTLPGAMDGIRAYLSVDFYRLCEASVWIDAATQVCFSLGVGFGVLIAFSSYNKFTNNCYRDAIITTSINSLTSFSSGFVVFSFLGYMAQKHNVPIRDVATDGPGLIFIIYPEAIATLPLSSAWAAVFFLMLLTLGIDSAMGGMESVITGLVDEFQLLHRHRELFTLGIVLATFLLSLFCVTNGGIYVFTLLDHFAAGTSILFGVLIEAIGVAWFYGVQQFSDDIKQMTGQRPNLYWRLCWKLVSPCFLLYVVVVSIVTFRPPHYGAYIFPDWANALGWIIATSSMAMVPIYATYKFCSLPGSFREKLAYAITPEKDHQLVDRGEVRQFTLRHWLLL
The assay is described as follows: Radioreceptor binding assay, dopamine transporter ([3H]GBR-12935), rat brain corpus striatum membranes. The settings on record: for Ki: [3H]GBR-12935 0.4 nM, 45 min at 4° C., Tris buffer pH 7.4, rat corpus striatum, ±SEM, read-out: Dopamine Transporter (DAT) (Ki); for DAT/5-HTT Selectivity: ratio of Ki for the dopamine transporter to the Ki for the serotonin transporter.

For orientation: Ki means the dissociation constant of the complex between target and ligand, obtained from inhibition or displacement. As to “3β-(4-Chlorophenyl)-2β-tricarbonylrheniumcyclopentadienylcarboxymethyl)tropane [RBI-219]”, the Ki in assay [1] stood at 11.9 ± 1.7 nM; in assay [2], 4.41 ± 0.76 nM. The “DAT/5-HTT Selectivity” value in assay [2] is given as 0.37.
With “3β-(4-iodophenyl)-2β-(tricarbonylrheniumcyclopentadienylcarboxymethyl)tropane [RBI-211]”, the Ki came out at 34.6 ± 3.4 nM in assay [1] and 7.22 ± 1.06 nM in assay [2]. In addition, the “DAT/5-HTT Selectivity” value in assay [2] is listed as 0.21.
Take “N-(tricarbonylmanganesecyclopentadienylbutan-1-one-4-yl)-2β-carbomethoxy-3β-(4-chlorophenyl)nortropane [RBI-233]”: the Ki in assay [1] is 0.84 ± 0.06 nM. For the same substance, in assay [2], the Ki came out at 1.67 ± 0.39 nM and the “DAT/5-HTT Selectivity” value is on record as 2.
As for “N-(tricarbonylrheniumcyclopentadienylbutan-1-one-4-yl)-2β-carbomethoxy-3β-(4-chlorophenyl)nortropane [RBI-235]”, in assay [1], the Ki was 0.37 ± 0.04 nM. Also, in assay [2], the Ki amounted to 1.29 ± 0.1 nM and the “DAT/5-HTT Selectivity” value stood at 3.49.
Turning to “N-(tricarbonylrheniumcyclopentadienylcarboxypropyl)-2β-carbomethoxy-3β-(4-chlorophenyl)nortropane [RBI-232]”, in assay [1], the Ki is 0.56 ± 0.08 nM. In assay [2], the Ki stood at 2.66 ± 0.33 nM and the “DAT/5-HTT Selectivity” value worked out at 4.75.
